In patent publication US11234436B2, “Method for controlling non-crop pests” (BASF Agrochemical Products B.V., priority 2015, dated 2022):

System: German Cockroach (Blattella germanica)
Experiment: Test 1: activity against German cockroach, treated glass vial contact, mortality
Type: in vivo
Conditions: alone, 1 h exposure in treated vial
Experimental: Test 1. Activity Against German Cockroach (Blattella germanica)
Glass vials were treated with 445 μl of varying concentrations of the technical grade active ingredient dissolved in acetone. Vials were turned on their sides and placed on an automated roller table. The vials were rolled (6 rpm) uncapped to allow an even coating of the treatment. Each treatment was replicated five times.
Prior to infestation, cockroaches were incapacitated using carbon dioxide (CO2). Approximately 6 insects were transferred with featherweight, broad tip forceps into treated vials, and held in an environmental chamber at 27° C. and 80% relative humidity for one hour. Following this exposure period, a small amount of CO2 was used to incapacitate the insects facilitating removal from treated vials. Insects were then transferred to 16 oz plastic holding containers provisioned with a small piece of dry cat food and a cotton wick moistened with water, and returned to the environmental chamber. Mortality was assessed at 1, 2, and 3 days after exposure (DAE).

Q: For `CC1(C)C(C=C(Cl)Cl)C1C(=O)OC(C#N)c1cccc(Oc2ccccc2)c1` (stereo not drawn) [Alphacypermethrin, alpha-cypermethrin], which “Average Control %” value (Test Mixture 1.4, 1.96 ppm) is on record?
A: 0%

Q: Which “Average Control %” value (Test Mixture 1.3, 100 ppm) does the source give for `CCOCn1c(-c2ccc(Cl)cc2)c(C#N)c(Br)c1C(F)(F)F` [Chlorfenapyr, chlorfenapyr] here?
A: 3.3%

Q: What does the source list for `CN(C(=O)c1ccccc1)c1cccc(C(=O)Nc2c(Br)cc(C(F)(C(F)(F)F)C(F)(F)F)cc2C(F)(F)F)c1F` [Compound i) of formula (I), broflanilide]?
A: Average Control % (Mixture 1.1, 9.2 ppm): 10%; Average Control % (Test Mixture 1.2, 10 ppm): 10%; Average Control % (Test Mixture 1.3, 9.5 ppm): 26.7%; Average Control % (Test Mixture 1.4, 9.5 ppm): 46.7%

Q: Which “Average Control %” value (Mixture 1.1, 2.6 ppm) does the source give for `CN/C(=N/CC1CCOC1)N[N+](=O)[O-]` (centres unmarked) [Dinotefuran, dinotefuran] here?
A: 16.7%

Q: And the “Average Control %” value (Test Mixture 1.2, 4.1 ppm)?
A: 30%
